Laboratory results as given in ChEMBL document CHEMBL1201862, “PubChem BioAssay data set” (2004).
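Exposure lasted 48 hours, with cells grown in 96-well plates and compounds tested at five concentrations. Here, GI50 denotes the concentration required for 50% inhibition of growth.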 Active and inactive are the calls of the source. Cut-off read from the data, not from the text of the source: active = GI50 up to about 1.1 µM and inactive = higher.

Assays:
Test in all cases: inhibition of tumour cell growth, NCI panel, 48 h
PC-3 = system: PC-3
MOLT-4 = system: MOLT-4
IGROV-1 = system: IGROV-1
BT-549 = system: BT-549
A498 = system: A498
DU-145 = system: DU-145
HL-60 = system: HL-60
ACHN = system: ACHN
SN12C = system: SN12C
M14 = system: M14
Malme-3M = system: Malme-3M
K562 = system: K562
OVCAR-8 = system: OVCAR-8
HT-29 = system: HT-29
OVCAR-5 = system: OVCAR-5
NCI/ADR-RES = system: NCI/ADR-RES
HCT-15 = system: HCT-15
786-0 = system: 786-0
SK-OV-3 = system: SK-OV-3
RPMI-8226 = system: RPMI-8226
NCI-H460 = system: NCI-H460
TK-10 = system: TK-10
SK-MEL-2 = system: SK-MEL-2
SNB-19 = system: SNB-19
Hs-578T = system: Hs-578T
MCF7 = system: MCF7
A549 = system: A549
NCI-H522 = system: NCI-H522
HCT-116 = system: HCT-116
MDA-MB-435 = system: MDA-MB-435
UACC-257 = system: UACC-257
HOP-62 = system: HOP-62
UACC-62 = system: UACC-62
CAKI-1 = system: CAKI-1
RXF 393 = system: RXF 393
LOX IMVI = system: LOX IMVI
OVCAR-3 = system: OVCAR-3
MDA-N = system: MDA-N
KM12 = system: KM12
NCI-H226 = system: NCI-H226
SW-620 = system: SW-620
SR = system: SR
SK-MEL-28 = system: SK-MEL-28
NCI-H23 = system: NCI-H23
MDA-MB-231 = system: MDA-MB-231
HOP-92 = system: HOP-92
UO-31 = system: UO-31
SF-539 = system: SF-539
T47D = system: T47D
SF-295 = system: SF-295
OVCAR-4 = system: OVCAR-4
SF-268 = system: SF-268
U-251 = system: U-251
EKVX = system: EKVX
COLO 205 = system: COLO 205
SK-MEL-5 = system: SK-MEL-5
SNB-75 = system: SNB-75

For `C[N+]1(C)CCc2cc(O)c(O)cc2C1Cc1ccc(O)c(O)c1` (stereo not given), the GI50 (PC-3) was > 100 µM (inactive), the GI50 (MOLT-4) was 23 µM (inactive) and the GI50 (IGROV-1) was 28 µM (inactive). For the same compound, the GI50 (BT-549) was > 100 µM (inactive), the GI50 (A498) was > 100 µM (inactive) and the GI50 (DU-145) was > 100 µM (inactive). The GI50 (HL-60) was 18.3 µM (inactive), the GI50 (ACHN) was 35.3 µM (inactive) and the GI50 (SN12C) was 38.2 µM (inactive). The GI50 (M14) was 92.7 µM (inactive), the GI50 (Malme-3M) was 32.1 µM (inactive) and the GI50 (K562) was 34 µM (inactive). The GI50 (OVCAR-8) was 35.2 µM (inactive), the GI50 (HT-29) was 34.8 µM (inactive) and the GI50 (OVCAR-5) was > 100 µM (inactive). For the same compound, the GI50 (NCI/ADR-RES) was 79.4 µM (inactive), the GI50 (HCT-15) was 36 µM and the GI50 (786-0) was 40.6 µM (inactive). The GI50 (SK-OV-3) was > 100 µM (inactive), the GI50 (RPMI-8226) was 22.2 µM (inactive) and the GI50 (NCI-H460) was 63.7 µM (inactive). The GI50 (TK-10) was 94.8 µM (inactive), the GI50 (SK-MEL-2) was 1.11 µM (active) and the GI50 (SNB-19) was > 100 µM (inactive). The GI50 (Hs-578T) was 86.9 µM (inactive), the GI50 (MCF7) was 19.8 µM (inactive) and the GI50 (A549) was > 100 µM (inactive). For the same compound, the GI50 (NCI-H522) was 22.5 µM (inactive), the GI50 (HCT-116) was 22.4 µM (inactive) and the GI50 (MDA-MB-435) was 20.2 µM (inactive). For the same compound, the GI50 (UACC-257) was 31.2 µM (inactive), the GI50 (HOP-62) was > 100 µM (inactive) and the GI50 (UACC-62) was 29.9 µM (inactive). The GI50 (CAKI-1) was 50.9 µM (inactive), the GI50 (RXF 393) was 39.9 µM (inactive) and the GI50 (LOX IMVI) was 27.7 µM (inactive). The GI50 (OVCAR-3) was 69 µM (inactive), the GI50 (MDA-N) was 32.2 µM (inactive) and the GI50 (KM12) was > 100 µM (inactive). For the same compound, the GI50 (NCI-H226) was 39.2 µM (inactive), the GI50 (SW-620) was 28.4 µM (inactive) and the GI50 (SR) was 34.8 µM (inactive). For the same compound, the GI50 (SK-MEL-28) was 99.8 µM (inactive), the GI50 (NCI-H23) was > 100 µM (inactive) and the GI50 (MDA-MB-231) was 31.1 µM (inactive). The GI50 (HOP-92) was 27.1 µM (inactive), the GI50 (UO-31) was 92 µM (inactive) and the GI50 (SF-539) was 50.4 µM (inactive). For the same compound, the GI50 (T47D) was 23 µM (inactive), the GI50 (SF-295) was > 100 µM (inactive) and the GI50 (OVCAR-4) was 22.1 µM (inactive). The GI50 (SF-268) was 39.6 µM (inactive), the GI50 (U-251) was > 100 µM (inactive) and the GI50 (EKVX) was > 100 µM (inactive). The GI50 (COLO 205) was > 100 µM (inactive) and the GI50 (SK-MEL-5) was 48.2 µM (inactive).
For `Cc1ncc(CSc2ccccc2N)c(CO)c1O`, the GI50 (SNB-75) was > 100 µM (inactive), the GI50 (PC-3) was > 100 µM (inactive) and the GI50 (MOLT-4) was > 100 µM (inactive). The GI50 (IGROV-1) was > 100 µM (inactive), the GI50 (BT-549) was > 100 µM (inactive) and the GI50 (A498) was > 100 µM (inactive). The GI50 (DU-145) was > 100 µM (inactive), the GI50 (ACHN) was > 100 µM (inactive) and the GI50 (SN12C) was > 100 µM (inactive). For the same compound, the GI50 (M14) was > 100 µM (inactive), the GI50 (Malme-3M) was > 100 µM (inactive) and the GI50 (K562) was > 100 µM (inactive). For the same compound, the GI50 (OVCAR-8) was > 100 µM (inactive), the GI50 (HT-29) was > 100 µM (inactive) and the GI50 (OVCAR-5) was > 100 µM (inactive). The GI50 (NCI/ADR-RES) was > 100 µM (inactive), the GI50 (HCT-15) was over 100 µM and the GI50 (786-0) was > 100 µM (inactive). For the same compound, the GI50 (SK-OV-3) was > 100 µM (inactive), the GI50 (RPMI-8226) was > 100 µM (inactive) and the GI50 (TK-10) was > 100 µM (inactive). For the same compound, the GI50 (SK-MEL-2) was > 100 µM (inactive), the GI50 (SNB-19) was > 100 µM (inactive) and the GI50 (Hs-578T) was > 100 µM (inactive). For the same compound, the GI50 (MCF7) was > 100 µM (inactive), the GI50 (A549) was > 100 µM (inactive) and the GI50 (NCI-H522) was > 100 µM (inactive). For the same compound, the GI50 (HCT-116) was > 100 µM (inactive), the GI50 (MDA-MB-435) was > 100 µM (inactive) and the GI50 (UACC-257) was > 100 µM (inactive). The GI50 (HOP-62) was > 100 µM (inactive), the GI50 (UACC-62) was 65.8 µM (inactive) and the GI50 (CAKI-1) was > 100 µM (inactive). For the same compound, the GI50 (RXF 393) was > 100 µM (inactive), the GI50 (LOX IMVI) was > 100 µM (inactive) and the GI50 (OVCAR-3) was > 100 µM (inactive). For the same compound, the GI50 (MDA-N) was > 100 µM (inactive), the GI50 (KM12) was > 100 µM (inactive) and the GI50 (NCI-H226) was > 100 µM (inactive). For the same compound, the GI50 (SW-620) was > 100 µM (inactive), the GI50 (SR) was > 100 µM (inactive) and the GI50 (SK-MEL-28) was > 100 µM (inactive). The GI50 (NCI-H23) was > 100 µM (inactive), the GI50 (MDA-MB-231) was > 100 µM (inactive) and the GI50 (HOP-92) was > 100 µM (inactive). For the same compound, the GI50 (SF-539) was > 100 µM (inactive), the GI50 (T47D) was > 100 µM (inactive) and the GI50 (SF-295) was > 100 µM (inactive). For the same compound, the GI50 (OVCAR-4) was > 100 µM (inactive), the GI50 (SF-268) was > 100 µM (inactive) and the GI50 (U-251) was > 100 µM (inactive). The GI50 (EKVX) was > 100 µM (inactive), the GI50 (COLO 205) was > 100 µM (inactive) and the GI50 (SK-MEL-5) was > 100 µM (inactive).
